The results in this text go back to patent publication US20150283259A1, “DRUG-PROTEIN CONJUGATES” (priority 2012, published 2015).

SMILES strings stand for the structures. pIC50: −log10 of the molar value.

Experiment [1] has as its system HER2-positive SK-BR-3 cells. The experiment can be described thus: In vitro cell viability assay (Cell-Titer Glo Luminescence), HER2-positive cells. Conditions: 96 h incubation, 40-0.018 nM, 2-fold dilutions, viability as % of untreated cells. The format is cell-based. The procedure: (§1) The in vitro efficacy of the antibody and Fab conjugates prepared in Examples 3 and 4 respectively were determined by measuring the inhibitory effect on cell growth of HER-2 receptor over-expressing cancer cell lines.
(§2) Loss of tumour cell viability following treatment with cytotoxic drugs or ADCs in vitro can be measured by growing cell lines in the presence of increasing concentrations of drugs or ADCs and quantifying the loss of proliferation or metabolic activity using Cell-Titer Glo® Luminescence reagent (Promega Corp. Technical Bullettin TB288; Lewis Phillips G. D, Cancer Res 2008; 68:9280-9290). […]
(§3) HER2-positive SK-BR-3 and HER2-negative MCF-7 cells were trypsinised with 3 mL Trypsin EDTA for 5-15 min. […] Cells were counted using a Neubauer haemocytometer and adjusted to a cell density of 3×10^4/mL for MCF-7 and 5×10^4/mL for SK-BR-3 respectively. […]
(§4) The cell viability assay was carried out using the Cell-Titer Glo® Luminescence reagent, as described by the manufacturer's instructions, (Promega Corp. Technical Bulletin TB288; Lewis Phillips G. D, Cancer Res 2008; 68:9280-9290). […]
(§5) Luminescence was recorded using a plate reader (e.g. MD SpectramaxM3 plate reader), and data subsequently analysed using a four parameter non-linear regression model.
(§6) Viability is expressed as % of untreated cells. […]

Experiment [2] deals with HER2-negative MCF-7 cells. As to the kind of experiment: In vitro cell viability assay (Cell-Titer Glo Luminescence), HER2-negative cells. The format is cell-based. As to conditions: 96 h incubation, 200-0.1 nM free AHX-DM1, 3 fold dilutions. The procedure:
as §1, §2, §3, §4, §5, §6

A word on the pIC50: it is −log10 of the IC50, conventionally taken in molar units. With `COc1cc2cc(c1Cl)N(C)C(=O)C[C@H](OC(=O)[C@H](C)N(C)C(=O)CCCCCN)[C@]1(C)O[C@H]1[C@H](C)[C@@H]1C[C@@](O)(NC(=O)O1)[C@H](OC)/C=C/C=C(\C)C2` [AHX-DM1], the pIC50 in experiment [1] was 8.47; in experiment [2] it was 7.44.
